Source: ChEMBL document CHEMBL1149901, “Complex sesquiterpenoids with tyrosinase inhibitory activity from the leaves of Chloranthus tianmushanensis” (J Nat Prod, 2008)
Activity calls are given as the source filed them. No cut-off for these calls is given here.

target: T1, Tyrosinase (Agaricus bisporus) (UniProt O42713)
T1 sequence (whole entry): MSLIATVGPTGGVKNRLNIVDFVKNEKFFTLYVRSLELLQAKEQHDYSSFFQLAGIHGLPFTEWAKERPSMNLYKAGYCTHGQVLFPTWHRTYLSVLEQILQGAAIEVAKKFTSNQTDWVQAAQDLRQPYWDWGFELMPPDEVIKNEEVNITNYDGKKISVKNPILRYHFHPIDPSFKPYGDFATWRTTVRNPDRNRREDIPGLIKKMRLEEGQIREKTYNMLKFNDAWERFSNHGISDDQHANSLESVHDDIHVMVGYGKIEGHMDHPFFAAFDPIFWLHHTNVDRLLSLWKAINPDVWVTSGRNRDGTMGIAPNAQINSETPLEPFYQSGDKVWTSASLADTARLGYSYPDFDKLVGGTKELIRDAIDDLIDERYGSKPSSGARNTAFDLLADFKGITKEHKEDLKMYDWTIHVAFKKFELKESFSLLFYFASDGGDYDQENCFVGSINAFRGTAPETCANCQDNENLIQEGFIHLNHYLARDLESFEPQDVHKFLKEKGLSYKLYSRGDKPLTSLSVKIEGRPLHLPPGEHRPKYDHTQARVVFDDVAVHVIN
Description: Inhibition of Mushroom tyrosinase

Row | Activity | SMILES
1 | inactive | CC1=C2C/C=C(\C)CC/C=C(\C)C[C@@H]2OC1=O
2 | inactive | C=C1[C@H]2C[C@H]2[C@]2(C)C=C3OC(=O)C(C)=C3C[C@@H]12
3 | inactive | C/C1=C\Cc2c(C)coc2C/C(C)=C/CC1
4 | inactive | C=C1CCC[C@]2(C)C[C@]3(O)OC(=O)C(C)=C3C[C@@H]12

target: T2, Tyrosinase (Agaricus bisporus, UniProt O42713)
T2 sequence (O42713 whole entry): T1 sequence (whole entry)
Description: Inhibition of Mushroom tyrosinase

Row | SMILES | IC50 [µM]
5 | CO[C@@]12OC(=O)C(C)=C1C1=C3[C@](C)([C@@H]4C[C@@H]4[C@@]3(O)C[C@@H]3[C@]14OC(=O)C1=C4C[C@H]4[C@](O)(COC(=O)/C(C)=C/COC(=O)CCC(=O)OC1)[C@H]1C[C@H]1[C@]34C)[C@H]2O | 312
6 | CC1=C2C3=C4[C@](C)([C@@H]5C[C@@H]5[C@@]4(O)C[C@@H]4[C@]35OC(=O)C3=C5C[C@H]5[C@](O)(COC(=O)/C(C)=C/COC(=O)CCC(=O)OC3)[C@H]3C[C@H]3[C@]45C)[C@@H](O)[C@]2(O)OC1=O [TIANMUSHANOL] | 358
